Test results reported in BindingDB's records for doi:10.1021/jm0603926 (Taigen Biotechnology, 2006).

Biological target: Replicase polyprotein 1ab (Severe acute respiratory syndrome coronavirus, UniProt P0C6X7)
Assay: 3CL Protease Enzyme Assays
Details: pH 7.5; 25 °C
Method: The effects of compound on enzyme activity were measured by using peptide cleavage assay. Cleavage products were resolved and analyzed with a reverse-phase HPLC. Quantification of peak areas was used to determine the extent of substrate conversion. Ki was calculated using the equation of Cheng and Prusoff.

Q: For `CCOC(=O)/C=C/[C@H](C[C@@H]1CCNC1=O)NC(=O)[C@H](Cc1ccc(F)cc1)NC(=O)[C@@H](NC(=O)c1cc(C)on1)C(C)C` [AG7088 analogue 2a], which Ki is on record?
A: > 10000 nM

Q: With `C[C@H](OC(C)(C)C)[C@H](NC(=O)OCc1ccccc1)C(=O)N[C@@H](CC1CCCCC1)C(=O)N[C@H](C=O)C[C@@H]1CCNC1=O` [benzyl N-[(1S,2S)-2-(tert-butoxy)-1-{[(1S)-2-cyclohexyl-1-{[(2S)-1-oxo-3-[(3S)-2-oxopyrrolidin-3-yl]propan-2-yl]carbamoyl}ethyl]carbamoyl}propyl]carbamate] as the compound, how does the Ki read?
A: 53 nM
